In PubChem BioAssay AID1259411 (Chemical Carcinogenesis Research Information System (CCRIS), 2018):
Activity calls are given as the source filed them. No rule for the calls is given here.

Tested on: rodent carcinogenicity bioassays, tumor incidence
Experiment: CCRIS carcinogenicity studies
Summary of the method: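 Archive of carcinogenicity, mutagenicity, tumor promotion and tumor inhibition results drawn from journals, NCI reports and other sources, expert-reviewed; covers 1985-2011 and is no longer updated.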

How did the carcinogen call (Species: MOUSE, Strain/Sex: CD-1/FEMALE (15), Route: DERMAL, Dose: 0, 2 UG IN 0.1 ML OF METHANOL 2/WK FOR 16 WK BEGINNING 1 WK POST CARCINOGEN DOSE THEN 5 UG 2/WK FOR 13 WK (STUDY DURATIO) turn out when `C=C/C=C\C1C2/C=C/CC(=O)O[C@@]34C[C@@H](C)[C@]5(O)C6C=C(C)C(=O)[C@@]6(O)CC(CO)=C[C@H]5[C@@H]3[C@@]4(C)COC(=O)C2C2C(/C=C/C=C/C=C/CCC)C12` (stereo partly specified) was run?
Its carcinogen call is “inactive; negative”.

With `Cc1cc2ncccc2c2nc(N)n(C)c12` as the compound, how does the carcinogen call (Species: MOUSE, Strain/Sex: C57BL/6N/FEMALE, Route: ORAL, Dose: 0, 300 PPM IN DIET FOR 92 WK (STUDY DURATION: 92 WK), Tumor Site: Type of Lesion: COLON: ADENOCARCINOMA, CECUM: ADENOCARCINOMA, LIVER: HEPATOCELLULAR ADENOMA, HEPATOCELLULAR CARCINOMA, OR FIBROSARCOMA, Tumor Site: Type of Lesion: COLON: ADENOCARCINOMA, CECUM: ADENOCARCINOMA, LIVER: HEPATOCELLULAR ADENOMA, HEPATOCELLULAR CARCINOMA, OR FIBROSARCOMA) read?
The carcinogen call was “active; positive”.

What about the carcinogen call (Species: MOUSE, Strain/Sex: CDF1/FEMALE, Route: ORAL, Dose: 0, 0.04% IN THE DIET FOR STUDY DURATION (STUDY DURATION: LIFESPAN), Tumor Site: Type of Lesion: FORESTOMACH: PAPILLOMA, SQUAMOUS CELL CARCINOMA, LIVER: HEPATOCELLULAR ADENOMA, HEPATOCELLULAR CARCINOMA) of the same compound?
The carcinogen call was “active; positive”.

And the carcinogen call (Species: MOUSE, Strain/Sex: CDF1/MALE, Route: ORAL, Dose: 0, 0.04% IN THE DIET FOR STUDY DURATION (STUDY DURATION: LIFESPAN), Tumor Site: Type of Lesion: FORESTOMACH: PAPILLOMA, SQUAMOUS CELL CARCINOMA, LIVER: CHOLANGIOCARCINOMA)?
Its carcinogen call is “active; positive”.

And the carcinogen call (Species: RAT, Strain/Sex: F344/MALE, Route: ORAL, Dose: 0, 0.03% IN DIET (DAILY INTAKE: 3.8 MG) FOR 286 D (STUDY DURATION: 286 D), Tumor Site: Type of Lesion: ZYMBAL GLAND: SQUAMOUS CELL CARCINOMA, ORAL CAVITY: SQUAMOUS CELL CARCINOMA OR SEBACEOUS SQUAMOUS CELL CARCINOMA, COLON:, Tumor Site: Type of Lesion: ZYMBAL GLAND: SQUAMOUS CELL CARCINOMA, ORAL CAVITY: SQUAMOUS CELL CARCINOMA OR SEBACEOUS SQUAMOUS CELL CARCINOMA, COLON:)?
The carcinogen call was “active; positive”.

What about the carcinogen call (Species: RAT, Strain/Sex: F344/MALE, Route: ORAL, Dose: 0, 0.03% IN DIET (DAILY INTAKE: 5.6 MG) FOR 286 D (STUDY DURATION: 286 D), Tumor Site: Type of Lesion: ZYMBAL GLAND: SQUAMOUS CELL CARCINOMA, ORAL CAVITY: SQUAMOUS CELL CARCINOMA OR SEBACEOUS SQUAMOUS CELL CARCINOMA, COLON:, Tumor Site: Type of Lesion: ZYMBAL GLAND: SQUAMOUS CELL CARCINOMA, ORAL CAVITY: SQUAMOUS CELL CARCINOMA OR SEBACEOUS SQUAMOUS CELL CARCINOMA, COLON:) of the same compound?
Its carcinogen call is “active; positive”.

And the carcinogen call (Species: RAT, Strain/Sex: WISTAR/MALE, Route: INTRAGASTRIC, Dose: 0, 10 MG/KG IN ACIDIFIED WATER 1/D FOR 2 WK (STUDY DURATION: 58 WK), Tumor Site: Type of Lesion: ZYMBAL GLAND: CARCINOMA)?
The carcinogen call was “active; positive”.

Which results are given for `O=[N+]([O-])c1ccc2nc[nH]c2c1`?
carcinogen call (Species: MOUSE, Strain/Sex: B6C3F1/FEMALE, Route: ORAL, Dose: 0, 0.12, 0.24% OF DIET, Dose: 0, 0.12, 0.24% OF DIET, Tumor Site: Type of Lesion: LIVER: HEPATOCELLULAR CARCINOMA OR HEPATOCELLULAR ADENOMA): active; positive; carcinogen call (Species: MOUSE, Strain/Sex: B6C3F1/MALE, Route: ORAL, Dose: 0, 0.12, 0.24% OF DIET, Dose: 0, 0.12, 0.24% OF DIET, Tumor Site: Type of Lesion: LIVER: HEPATOCELLULAR CARCINOMA OR HEPATOCELLULAR ADENOMA): active; positive; carcinogen call (Species: RAT, Strain/Sex: F344/FEMALE, Route: ORAL, Dose: 0, 0.12, 0.5% OF DIET, Dose: 0, 0.12, 0.5% OF DIET): inactive; negative; carcinogen call (Species: RAT, Strain/Sex: F344/MALE, Route: ORAL, Dose: 0, 0.12, 0.5% OF DIET, Dose: 0, 0.12, 0.5% OF DIET): inactive; negative

For `CN(N=O)C(=O)Oc1cccc2ccccc12`, which carcinogen call (Species: MOUSE, Strain/Sex: CFLP/FEMALE, Route: DERMAL, Dose: 0, 12.5, 50, 200 UG IN ACETONE 2 D/WK FOR 104 WK (STUDY DURATION: 24 MO), Dose: 0, 12.5, 50, 200 UG IN ACETONE 2 D/WK FOR 104 WK (STUDY DURATION: 24 MO), Tumor Site: Type of Lesion: SKIN: CARCINOMA) is on record?
The carcinogen call was “active; positive”.

`C=CC(=O)OC(C)COCC(C)OCC(C)OC(=O)C=C` (stereo unspecified) was tested. Which carcinogen call (Species: MOUSE, Strain/Sex: TG.AC/FEMALE, Route: DERMAL, Dose: 0, 1, 5, 10 UMOL IN 200 µL ACETONE 3/WK FOR 20 WK (STUDY DURATION: 20 WK), Dose: 0, 1, 5, 10 UMOL IN 200 µL ACETONE 3/WK FOR 20 WK (STUDY DURATION: 20 WK), Tumor Site: Type of Lesion: SKIN: PAPILLOMA) did it give?
Its carcinogen call is “active; positive”.

With `O=C(OOC(=O)c1ccccc1)c1ccccc1` as the compound, how does the carcinogen call (Species: MOUSE, Strain/Sex: SENCAR/FEMALE, Route: DERMAL, Dose: 0, 0.2 ML OF 100 MG/ML SOLUTION IN ACETONE 2 D/WK FOR 51 WK (STUDY DURATION: 52 WK), Tumor Site: Type of Lesion: SKIN: SQUAMOUS CELL CARCINOMA OR EPIDERMAL HYPERPLASIA) read?
Its carcinogen call is “active; positive”.

Which results are given for `CCCN(CCC)N=O`?
carcinogen call (Species: HAMSTER, Route: SUBCUTANEOUS, Tumor Site: Type of Lesion: RESPIRATORY TRACT, LUNG): active; positive; carcinogen call (Species: RAT, Route: ORAL, Tumor Site: Type of Lesion: LIVER): active; positive; carcinogen call (Species: RAT, Route: SUBCUTANEOUS, Tumor Site: Type of Lesion: NASAL CAVITY, LIVER): active; positive

`COCc1cnc(C2=NC(C)(C(C)C)C(=O)N2)c(C(=O)O)c1` (stereo unspecified) was tested. Which carcinogen call (Species: Mouse, Strain/Sex: CD-1/Female (55/Group), Route: Oral, Dose: 0, 96, 664, 1348 mg/kg/day of 97.1% imazamox in diet for at least 18 mo, study duration at least 18 mo, Dose: 0, 96, 664, 1348 mg/kg/day of 97.1% imazamox in diet for at least 18 mo, study duration at least 18 mo) did it give?
Its carcinogen call is “inactive; negative”.

What about the carcinogen call (Species: Mouse, Strain/Sex: CD-1/Male (55/Group), Route: Oral, Dose: 0, 73, 535, 1053 mg/kg/day of 97.1% imazamox in diet for at least 18 mo, study duration at least 18 mo, Dose: 0, 73, 535, 1053 mg/kg/day of 97.1% imazamox in diet for at least 18 mo, study duration at least 18 mo) of the same compound?
Its carcinogen call is “inactive; negative”.

And the carcinogen call (Species: Rat, Strain/Sex: Sprague-Dawley/Female (65/Group), Route: Oral, Dose: 0, 63, 626, 1284 mg/kg/day of 97.1% imazamox in diet for 24 mo, study duration 24 mo, Dose: 0, 63, 626, 1284 mg/kg/day of 97.1% imazamox in diet for 24 mo, study duration 24 mo)?
The carcinogen call was “inactive; negative”.

And the carcinogen call (Species: Rat, Strain/Sex: Sprague-Dawley/Male (65/Group), Route: Oral, Dose: 0, 52, 528, 1068 mg/kg/day of 97.1% imazamox in diet for 24 mo, study duration 24 mo, Dose: 0, 52, 528, 1068 mg/kg/day of 97.1% imazamox in diet for 24 mo, study duration 24 mo)?
Its carcinogen call is “inactive; negative”.

`COc1cc(/C=C/C(=O)CC(=O)/C=C/c2ccc(O)c(OC)c2)ccc1O` was tested. Which carcinogen call (Species: MOUSE, Strain/Sex: B6C3F1/FEMALE, Route: ORAL, Dose: 0, 2000, 10000, 50000 PPM IN FEED FOR 104 WK (STUDY DURATION: 104 WK), Dose: 0, 2000, 10000, 50000 PPM IN FEED FOR 104 WK (STUDY DURATION: 104 WK), Tumor Site: Type of Lesion: LIVER: HEPATOCELLULAR ADENOMA, HEPATOCELLULAR ADENOMA OR CARCINOMA) did it give?
Its carcinogen call is “equivocal”.

And the carcinogen call (Species: MOUSE, Strain/Sex: B6C3F1/MALE, Route: ORAL, Dose: 0, 2000, 10000, 50000 PPM IN FEED FOR 104 WK (STUDY DURATION: 104 WK), Dose: 0, 2000, 10000, 50000 PPM IN FEED FOR 104 WK (STUDY DURATION: 104 WK), Tumor Site: Type of Lesion: LIVER: HEPATOCELLULAR ADENOMA, HEPATOCELLULAR ADENOMA OR CARCINOMA, SMALL INTESTINE: CARCINOMA)?
Its carcinogen call is “equivocal”.

What about the carcinogen call (Species: RAT, Strain/Sex: F344/FEMALE, Route: ORAL, Dose: 0, 2000, 10000, 50000 PPM IN FEED FOR 104 WK (STUDY DURATION: 104 WK), Dose: 0, 2000, 10000, 50000 PPM IN FEED FOR 104 WK (STUDY DURATION: 104 WK), Tumor Site: Type of Lesion: CLITORAL GLAND: ADENOMA, ADENOMA OR CARCINOMA) of the same compound?
The carcinogen call was “equivocal”.

And the carcinogen call (Species: RAT, Strain/Sex: F344/MALE, Route: ORAL, Dose: 0, 2000, 10000, 50000 PPM IN FEED FOR 104 WK (STUDY DURATION: 104 WK), Dose: 0, 2000, 10000, 50000 PPM IN FEED FOR 104 WK (STUDY DURATION: 104 WK))?
Its carcinogen call is “inactive; negative”.

With `Cc1c(O)cc2c(c1C)OC(C)(CCCC(C)CCCC(C)CCCC(C)C)CC2` (stereo unspecified) as the compound, how does the carcinogen call (Species: MOUSE, Strain/Sex: 6HF1/MALE, Route: ORAL, Dose: 0, 5% IN BASAL DIET FOR 104 WK (STUDY DURATION: 104 WK), Tumor Site: Type of Lesion: LIVER: TUMOR) read?
Its carcinogen call is “active; positive”.
